The values that follow come from patent US12312330B2, “1-((S)-1-(3-chloro-5-fluoro-2-((4-(1h-pyrazol-1-yl)-2-methylquinolin-8-yloxy)methyl)phenyl)ethyl)-imidazolidine-2,4-dione derivatives and related compounds as bradykinin (BK) B2 receptor antagonist for treating skin diseases” (Pharvaris GmbH, priority 2019, dated 2025).

This assay has as its target T1, human bradykinin B2 receptor (hB2R) (Homo sapiens, UniProt P30411).
T1 sequence (P30411 1-391): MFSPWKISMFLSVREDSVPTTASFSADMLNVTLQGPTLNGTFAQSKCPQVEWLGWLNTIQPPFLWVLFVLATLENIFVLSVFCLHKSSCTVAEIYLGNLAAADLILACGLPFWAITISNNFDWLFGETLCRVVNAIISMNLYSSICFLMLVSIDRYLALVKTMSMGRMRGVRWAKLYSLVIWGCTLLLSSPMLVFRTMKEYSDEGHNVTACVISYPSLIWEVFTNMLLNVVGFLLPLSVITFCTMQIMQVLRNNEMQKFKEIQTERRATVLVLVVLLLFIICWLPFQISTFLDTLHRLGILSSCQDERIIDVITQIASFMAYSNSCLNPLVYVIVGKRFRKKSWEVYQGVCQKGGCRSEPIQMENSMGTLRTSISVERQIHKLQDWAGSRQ
The experiment in a line: human bradykinin B2 receptor calcium mobilization (hB2R-CaM) assay. The note with it: antagonism of bradykinin (EC80) induced calcium mobilization, B2 Bradykinin Receptor Stable Cell Line HTS041C, 25 min pre-incubation; read-out: IC50-value towards human bradykinin B2 receptor (hB2R). It is filed as cell-based. The source says:
The following cell-based human bradykinin B2 receptor calcium mobilization (hB2R-CaM) assay was used to determine the antagonistic activity of compounds selected from the example compounds Nos. 1 to 107 towards human bradykinin B2 receptor (hB2R). The assay is defined herein as a standard in vitro B2 receptor activity assay, which can be used to determine IC50 values of the compounds according to the present invention, e. g. the compounds shown in Examples 1-13.
The antagonistic activity of compounds according to the present invention was investigated with the hB2R-CaM assay using the B2 Bradykinin Receptor Stable Cell Line HTS041C (Eurofins, St. Charles MO) and the FLIPR Calcium 6 Assay Kit (Molecular Devices, Wokingham, UK) according to the instructions of the providers. CaM assay measurements were performed with a Flexstation 3 System (Molecular Devices) which allows the precise addition of compounds (B2R antagonists) and bradykinin (B2R agonist) to the cells and adjacent continuous recording of the time-dependent CaM assay signals.
HTS041C cells were cultured in high glucose DMEM cell culture medium (Lonza) supplemented with 10% heat-inactivated FBS (PAN Biotech), 10 mM HEPES, Penicillin/Streptomycin (200 U/mL, 200 μg/mL), lx non-essential amino acids (Lonza), and 250 μg/mL G418 (Invivogen) in cell incubator at 37° C. in a 5% CO2 atmosphere. One day before the CaM assay experiments cells were seeded in 200 μL DMEM cell culture medium with reduced FBS (5%) and without G418 on clear bottom black 96 well plates (ThermoFisher #165305). Cell starvation was carried out by incubation (37° C., 5% CO2) of 70.000 cells/well for 24 h to 28 h. Immediately prior calcium dye-loading the medium was carefully aspirated and cells were washed with Hank's balanced salt solution (HBSS, Gibco) containing Ca^2+, Mg^2+ and 20 mM HEPES, adjusted to pH 7.4 (HBSS+).
For calcium dye-loading one FLIPR 6 assay aliquot was dissolved in 20 mL HBSS+. 150 μL of the dye loading solution was added to cell plate and incubated for 120 min at 37° C. and 5% CO2. After dye loading the cell plate was immediately transferred to the pre-warmed (37° C.) Flexstation 3 System for CaM assaying.
Freshly prepared compound (B2 receptor antagonists) dilution series (8 pt, n=2) and bradykinin (B2 receptor agonist) solution in non-binding plates (Costar) were transferred to the Flexstation System (source plate) shortly before starting the experiment. Bradykinin was added in EC80 concentration determined in n>3 preliminary experiments with 8 pt concentration response curves (n=8)). CaM assay was executed by Flexstation 3 System starting with recording of calcium-sensitive dye fluorescence in bottom-read Flex modus with ex/em=485 nm/525 nm, cut off(em)=515 nm After 20 s, 50 μL of 4-fold concentrated compound dilutions were added to the cells resulting in a final DMSO (Sigma) concentration of 0.1% in the cell plate. CaM signals were monitored for 80 s after additions for detection of potential agonistic activities. Prior to bradykinin stimulus compound- and vehicle-treated cells were incubated for 25 min at 37° C. within the Flexstation System. Then 50 μL of a 5-fold concentrated bradykinin solution (HBSS+, 0.1% DMSO) was added to trigger CaM signals (Read out: Max-Min values) which were measured for 80 s post bradykinin stimulus.
IC50 determinations were performed by 4 parameter logistic model curve fitting of the 8 pt (n=2) compound concentration response curves using XLFIT (IDBS) software.
For orientation: A change in cytosolic calcium serves as a functional read-out for many receptors and channels.
With `Cc1cc(-n2cc(F)cn2)c2cccc(OCc3c(Cl)cc(F)cc3[C@H](C)N3CC[C@@H](O)C3=O)c2n1` [compound 42], the IC50 lay within 11 to 100 nM.
The same measure for `Cc1cc(-n2cc(F)cn2)c2cccc(OCc3c(Cl)cc(F)cc3[C@H](C)N3CCN(C(=O)OC(C)(C)C)[C@@H](C)C3=O)c2n1` [compound 80]: 101 to 500 nM.
The same measure for `Cc1cc(-c2ncnn2C)c2cccc(OCc3c(Cl)cc(F)cc3[C@H](C)N3C[C@@H](C)NC(=O)C3=O)c2n1` [compound 98]: not above 10 nM; for `Cc1cc(-c2ncnn2C)c2cccc(OCc3c(Cl)cc(F)cc3[C@H](C)N3CC[C@@H](F)C3=O)c2n1` [Compound No. 5, (R)-1-((S)-1-(3-chloro-5-fluoro-2-((2-methyl-4-(1-methyl-1H-1,2,4-triazol-5-yl)quinolin-8-yloxy)methyl)phenyl)ethyl)-3-fluoropyrrolidin-2-one]: not above 10 nM.
The value for `Cc1cc(-c2ncnn2C)c2cccc(OCc3c(Cl)cc(F)cc3[C@H](C)N3CCN(C)C(C)(C)C3=O)c2n1` [Compound No. 10, (S)-1-(1-(3-chloro-5-fluoro-2-((2-methyl-4-(1-methyl-1H-1,2,4-triazol-5-yl)quinolin-8-yloxy)methyl)phenyl)ethyl)-3,3,4-trimethylpiperazin-2-one] was 11 to 100 nM.
As for `Cc1cc(-n2cc(F)cn2)c2cccc(OCc3c(Cl)cc(F)cc3[C@H](C)N3CC(=O)NC(C)(C)C3=O)c2n1` [compound 102], the IC50 was in the range of 11 to 100 nM.
As for `Cc1cc(-n2cc(F)cn2)c2cccc(OCc3c(Cl)cc(F)cc3[C@H](C)N3C[C@@H](C)N(C)C(=O)C3=O)c2n1` [Compound No. 11, (R)-1-((S)-1-(3-chloro-5-fluoro-2-((4-(4-fluoro-1H-pyrazol-1-yl)-2-methylquinolin-8-yloxy)methyl)phenyl)ethyl)-4,5-dimethylpiperazine-2,3-dione], the IC50 is not above 10 nM.
The same measure for `Cc1cc(-n2cc(F)cn2)c2cccc(OCc3c(Cl)cc(F)cc3[C@H](C)N3CC(=O)N(CC(=O)O)C3=O)c2n1` [compound 22]: 11 to 100 nM.
The value for `Cc1cc(-n2cc(F)cn2)c2cccc(OCc3c(Cl)cc(F)cc3[C@H](C)N3CCCCC3=O)c2n1` [compound 16] was 11 to 100 nM; that for `Cc1cc(-c2ncnn2C)c2cccc(OCc3c(Cl)cc(F)cc3[C@H](C)N3CCC[C@H](O)C3=O)c2n1` [compound 85] was 101 to 500 nM; that for `Cc1cc(-n2cc(F)cn2)c2cccc(OCc3c(Cl)cc(F)cc3[C@H](C)N3CCC(C)(C)C3=O)c2n1` [compound 64] was 11 to 100 nM.
The same measure for `Cc1cc(-n2cc(F)cn2)c2cccc(OCc3c(Cl)cc(F)cc3[C@H](C)N3CCC[C@@H](O)C3=O)c2n1` [compound 84]: 11 to 100 nM; for `Cc1cc(-c2ncnn2C)c2cccc(OCc3c(Cl)cc(F)cc3[C@H](C)N3C[C@H](C)OCC3=O)c2n1` [compound 41]: not above 10 nM.
With `Cc1cc(-n2cc(F)cn2)c2cccc(OCc3c(Cl)cc(F)cc3[C@H](C)N3CCC(C)C3=O)c2n1` (single isomer, unassigned) [compound 58], the IC50 was in the range of 11 to 100 nM.
The same measure for `Cc1cc(-n2cc(F)cn2)c2cccc(OCc3c(Cl)cc(F)cc3[C@H](C)N3CC(=O)N(CC(N)=O)C3=O)c2n1` [Compound No. 1, (S)-2-(3-(1-(3-chloro-5-fluoro-2-((4-(4-fluoro-1H-pyrazol-1-yl)-2-methylquinolin-8-yloxy)methyl)phenyl)ethyl)-2,5-dioxoimidazolidin-1-yl)acetamide]: 11 to 100 nM; for `Cc1cc(-n2cc(F)cn2)c2cccc(OCc3c(Cl)cc(F)cc3[C@H](C)N3CCN(C)[C@@H](C)C3=O)c2n1` [compound 92]: not above 10 nM; for `Cc1cc(-c2ncnn2C)c2cccc(OCc3c(Cl)cc(F)cc3[C@H](C)N3CCC(C)(C)C3=O)c2n1` [compound 65]: 11 to 100 nM.
The same measure for `CCN1C(=O)C(C)N([C@@H](C)c2cc(F)cc(Cl)c2COc2cccc3c(-c4ncnn4C)cc(C)nc23)C1=O` (single isomer, unassigned) [compound 53]: not above 10 nM; for `Cc1cc(-c2ncnn2C)c2cccc(OCc3c(Cl)cc(F)cc3[C@H](C)N3CC(=O)N(C)[C@@H](C)C3=O)c2n1` [compound 74]: 11 to 100 nM; for `Cc1cc(-c2ncnn2C)c2cccc(OCc3c(Cl)cc(F)cc3[C@H](C)N3C(=O)N(C4CC4)C(=O)C3C)c2n1` (single isomer, unassigned) [compound 55]: not above 10 nM.
The same measure for `CC(=O)N1CCN([C@@H](C)c2cc(F)cc(Cl)c2COc2cccc3c(-n4cc(F)cn4)cc(C)nc23)C(=O)C1` [compound 78]: 11 to 100 nM; for `Cc1cc(-n2cc(F)cn2)c2cccc(OCc3c(Cl)cc(F)cc3[C@H](C)N3CC(=O)N(CC(=O)N(C)C)C3=O)c2n1` [compound 21]: 11 to 100 nM; for `CCC1CCC(=O)N([C@@H](C)c2cc(F)cc(Cl)c2COc2cccc3c(-c4ncnn4C)cc(C)nc23)C1` (stereo partly drawn) [compound 67]: not above 10 nM.
`Cc1cc(-n2cc(F)cn2)c2cccc(OCc3c(Cl)cc(F)cc3[C@H](C)N3CC(=O)N(CCN)C3=O)c2n1` [compound 23]: the IC50 was 11 to 100 nM.
As for `Cc1cc(-c2ncnn2C)c2cccc(OCc3c(Cl)cc(F)cc3[C@H](C)N3C[C@H](O)CCC3=O)c2n1` [compound 83], the IC50 was in the range of 11 to 100 nM.
For `Cc1cc(-n2cc(F)cn2)c2cccc(OCc3c(Cl)cc(F)cc3[C@H](C)N3C(=O)N(C4CC4)C(=O)C3C)c2n1` (single isomer, unassigned) [compound 30], the IC50 is not above 10 nM.
The same measure for `Cc1cc(-n2cc(F)cn2)c2cccc(OCc3c(Cl)cc(F)cc3[C@H](C)N3CC(=O)N(C)CC3=O)c2n1` [compound 46]: not above 10 nM.

As a reminder, the IC50 is the point on the concentration scale where inhibition reaches its midpoint.
